Assay results: US8716297B2, “Chemical entities to be used for Wee1 inhibition for the treatment of cancer” (AbbVie Inc., priority 2011, dated 2014)

Biological target: T1, GST-tagged-Wee1 kinase (Homo sapiens, UniProt P30291)
T1 construct: purchased Carnabio 05-177
Experiment: Wee1 time-resolved fluorescence equilibrium binding assay (displacement of Oregon Green-labeled ATP-competitive probe)
Conditions: TR-FRET probe displacement; 2 nM GST-Wee1, 300 nM probe, 1 hour incubation; read-out: Wee-1 binding (Ki nM)
Description: Wee1 kinase was assayed using a time-resolved fluorescence equilibrium binding assay monitoring displacement of a rapidly reversible Oregon Green-labeled ATP-competitive kinase probe (N-(2-(2-(2-(4-(4-(5-chloro-4-(2-(1-hydroxycyclobutyl)thiazol-5-yl)-1H-pyrrolo[2,3-b]pyridin-2-yl)phenyl)piperazin-1-yl)ethoxy)ethoxy)ethyl)-2′,7′-difluoro-3′,6′-dihydroxy-3-oxo-3H-spiro[isobenzofuran-1,9′-xanthene]-5-carboxamide) by competitive Wee1 inhibitors.

T1 sequence (P30291 whole entry): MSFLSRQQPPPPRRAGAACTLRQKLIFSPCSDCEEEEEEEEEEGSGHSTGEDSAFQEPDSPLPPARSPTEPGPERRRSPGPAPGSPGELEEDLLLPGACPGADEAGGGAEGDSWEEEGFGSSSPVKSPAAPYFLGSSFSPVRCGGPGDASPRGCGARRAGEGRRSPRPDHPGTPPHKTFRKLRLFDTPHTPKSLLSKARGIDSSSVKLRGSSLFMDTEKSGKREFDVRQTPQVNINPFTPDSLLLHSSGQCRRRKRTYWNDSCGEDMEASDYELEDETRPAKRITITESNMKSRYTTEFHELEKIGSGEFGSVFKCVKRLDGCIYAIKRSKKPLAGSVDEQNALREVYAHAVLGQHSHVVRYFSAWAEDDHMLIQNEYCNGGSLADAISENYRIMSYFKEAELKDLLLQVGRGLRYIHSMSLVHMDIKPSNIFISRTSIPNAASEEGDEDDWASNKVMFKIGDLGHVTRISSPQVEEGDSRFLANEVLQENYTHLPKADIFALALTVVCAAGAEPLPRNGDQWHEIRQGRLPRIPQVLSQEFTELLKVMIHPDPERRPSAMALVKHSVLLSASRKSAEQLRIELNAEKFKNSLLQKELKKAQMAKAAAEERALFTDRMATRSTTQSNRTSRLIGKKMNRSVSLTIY

Ki [nM] | Compound
2.4 | CCCN1c2ccc(-c3cccnc3)cc2-c2nc(Nc3ccc(N4CCN(C)CC4)cc3)ncc2S1(=O)=O [Example 98, N-[4-(4-methylpiperazin-1-yl)phenyl]-6-propyl-9-(pyridin-3-yl)-6H-pyrimido[5,4-c][2,1]benzothiazin-2-amine 5,5-dioxide]
2700 | COC(=O)c1ccc2c(c1)N(c1cc(C(F)(F)F)cc(C(F)(F)F)c1)S(=O)(=O)c1cnc(Nc3ccc(N4CCN(C)CC4)cc3)nc1-2 [Example 91, methyl 6-[3,5-bis(trifluoromethyl)phenyl]-2-{[4-(4-methylpiperazin-1-yl)phenyl]amino}-6H-pyrimido[5,4-c][2,1]benzothiazine-8-carboxylate 5,5-dioxide]
4 | CCCN1c2cc(-c3ccc(C(N)=O)cc3)ccc2-c2nc(Nc3ccc(N4CCN(C)CC4)cc3)ncc2S1(=O)=O [Example 71, 4-(2-{[4-(4-methylpiperazin-1-yl)phenyl]amino}-5,5-dioxido-6-propyl-6H-pyrimido[5,4-c][2,1]benzothiazin-8-yl)benzamide]
7 | CCCN1c2cc(-n3cncn3)ccc2-c2nc(Nc3ccc(N4CCN(C)CC4)cc3)ncc2S1(=O)=O [Example 94, N-[4-(4-methylpiperazin-1-yl)phenyl]-6-propyl-8-(1H-1,2,4-triazol-1-yl)-6H-pyrimido[5,4-c][2,1]benzothiazin-2-amine 5,5-dioxide]
106 | C=CCN1c2ccccc2-c2nc(Nc3ccc4c(c3)N(C)CCC4)ncc2S1(=O)=O [Example 8, 6-allyl-N-(1-methyl-1,2,3,4-tetrahydroquinolin-7-yl)-6H-pyrimido[5,4-c][2,1]benzothiazin-2-amine 5,5-dioxide]
4 | CCCN1c2cc(-c3cccnc3)ccc2-c2nc(Nc3ccc(N4CCN(C)CC4)cc3)ncc2S1(=O)=O [Example 69, N-[4-(4-methylpiperazin-1-yl)phenyl]-6-propyl-8-(pyridin-3-yl)-6H-pyrimido[5,4-c][2,1]benzothiazin-2-amine 5,5-dioxide]
6 | CCCN1c2cc(C(=O)OC)ccc2-c2nc(Nc3ccc(N4CCN(C)CC4)cc3)ncc2S1(=O)=O [Example 78, methyl 2-{[4-(4-methylpiperazin-1-yl)phenyl]amino}-6-propyl-6H-pyrimido[5,4-c][2,1]benzothiazine-8-carboxylate 5,5-dioxide]
1450 | C=CCN1c2ncccc2-c2nc(Nc3ccccc3)ncc2S1(=O)=O [Example 32, 6-allyl-N-phenyl-6H-pyrido[2,3-c]pyrimido[4,5-e][1,2]thiazin-2-amine 5,5-dioxide]
45 | CCCN1c2cc(-n3cccc3)ccc2-c2nc(Nc3ccc(N4CCN(C)CC4)cc3)ncc2S1(=O)=O [Example 93, N-[4-(4-methylpiperazin-1-yl)phenyl]-6-propyl-8-(1H-pyrrol-1-yl)-6H-pyrimido[5,4-c][2,1]benzothiazin-2-amine 5,5-dioxide]
2 | CCCN1c2ccc(Br)cc2-c2nc(Nc3ccc(N4CCN(C)CC4)cc3)ncc2S1(=O)=O [Example 96, 9-bromo-N-[4-(4-methylpiperazin-1-yl)phenyl]-6-propyl-6H-pyrimido[5,4-c][2,1]benzothiazin-2-amine 5,5-dioxide]
141 | C=CCN1c2c(C(=O)O)cccc2-c2nc(Nc3ccc(N4CCN(C)CC4)cc3)ncc2S1(=O)=O [Example 59, 6-allyl-2-{[4-(4-methylpiperazin-1-yl)phenyl]amino}-6H-pyrimido[5,4-c][2,1]benzothiazine-7-carboxylic acid 5,5-dioxide]
12 | C=CCN1c2ncccc2-c2nc(Nc3ccc(N4CCOCC4)cc3)ncc2S1(=O)=O [Example 52, 6-allyl-N-[4-(morpholin-4-yl)phenyl]-6H-pyrido[2,3-c]pyrimido[4,5-e][1,2]thiazin-2-amine 5,5-dioxide]
37 | C=CCN1c2c(C(=O)NCCO)cccc2-c2nc(Nc3ccc(N4CCN(C)CC4)cc3)ncc2S1(=O)=O [Example 62, 6-allyl-N-(2-hydroxyethyl)-2-{[4-(4-methylpiperazin-1-yl)phenyl]amino}-6H-pyrimido[5,4-c][2,1]benzothiazine-7-carboxamide 5,5-dioxide]
413 | C=CCN1c2ccccc2-c2nc(N)ncc2S1(=O)=O [Example 29, 6-allyl-6H-pyrimido[5,4-c][2,1]benzothiazin-2-amine 5,5-dioxide]
2 | C=CCN1c2ncccc2-c2nc(Nc3ccc(N4CCNCC4)cc3)ncc2S1(=O)=O [Example 34, 6-allyl-N-[4-(piperazin-1-yl)phenyl]-6H-pyrido[2,3-c]pyrimido[4,5-e][1,2]thiazin-2-amine 5,5-dioxide]
3 | CCCN1c2ccc(-c3ccncc3)cc2-c2nc(Nc3ccc(N4CCN(C)CC4)cc3)ncc2S1(=O)=O [Example 99, N-[4-(4-methylpiperazin-1-yl)phenyl]-6-propyl-9-(pyridin-4-yl)-6H-pyrimido[5,4-c][2,1]benzothiazin-2-amine 5,5-dioxide]
3 | C=CCN1c2ncccc2-c2nc(Nc3ccc4c(c3)CNCC4)ncc2S1(=O)=O [Example 33, 6-allyl-N-(1,2,3,4-tetrahydroisoquinolin-7-yl)-6H-pyrido[2,3-c]pyrimido[4,5-e][1,2]thiazin-2-amine 5,5-dioxide]
1.7 | C=CCN1c2ccccc2-c2nc(Nc3ccc(N4CCNCC4)c(F)c3)ncc2S1(=O)=O [Example 31, 6-allyl-N-[3-fluoro-4-(piperazin-1-yl)phenyl]-6H-pyrimido[5,4-c][2,1]benzothiazin-2-amine 5,5-dioxide]
56 | C=CCN1c2ncccc2-c2nc(Nc3ccc(C(=O)N4CCN(C)CC4)cc3)ncc2S1(=O)=O [Example 43, {4-[(6-allyl-5,5-dioxido-6H-pyrido[2,3-c]pyrimido[4,5-e][1,2]thiazin-2-yl)amino]phenyl}(4-methylpiperazin-1-yl)methanone]
21 | C=CCN1c2ccccc2-c2nc(Nc3ccc4c(c3)NCCC4)ncc2S1(=O)=O [Example 30, 6-allyl-N-(1,2,3,4-tetrahydroquinolin-7-yl)-6H-pyrimido[5,4-c][2,1]benzothiazin-2-amine 5,5-dioxide]
1.2 | C=CCN1c2ccccc2-c2nc(Nc3ccc(C4CCN(C)CC4)cc3)ncc2S1(=O)=O [Example 19, 6-allyl-N-[4-(1-methylpiperidin-4-yl)phenyl]-6H-pyrimido[5,4-c][2,1]benzothiazin-2-amine 5,5-dioxide]
1.1 | C=CCN1c2ccccc2-c2nc(Nc3ccc4c(c3)CN(C)CC43CC3)ncc2S1(=O)=O [Example 28, 6-allyl-N-(2′-methyl-2′,3′-dihydro-1′H-spiro[cyclopropane-1,4′-isoquinolin]-7′-yl)-6H-pyrimido[5,4-c][2,1]benzothiazin-2-amine 5,5-dioxide]
4 | CCCN1c2ccccc2-c2nc(Nc3ccc(N4CCN(C)CC4)cc3)ncc2S1(=O)=O [Example 67, N-[4-(4-methylpiperazin-1-yl)phenyl]-6-propyl-6H-pyrimido[5,4-c][2,1]benzothiazin-2-amine 5,5-dioxide]
591 | COC(=O)c1ccc2c(c1)N(Cc1c(Cl)cccc1Cl)S(=O)(=O)c1cnc(Nc3ccc(N4CCN(C)CC4)cc3)nc1-2 [Example 95, methyl 6-(2,6-dichlorobenzyl)-2-{[4-(4-methylpiperazin-1-yl)phenyl]amino}-6H-pyrimido[5,4-c][2,1]benzothiazine-8-carboxylate 5,5-dioxide]
